“Also recorded” adds a separate entry of the source.
Test system: Purkinje cells in acute cerebellar slices from SCA2-58Q mouse
Assay: Cerebellar slice loose-patch recordings of spontaneous PC activity in SCA2-58Q mice
Type: cell-based
Settings: 10 μM; for effect on PC firing pattern: bursting SCA2-58Q PC; for Average firing frequency (FF) after exposure: 10-s fragment of one PC recording, before application 2o 157.2 Hz, 2q 134.3 Hz
Method: The ISI distribution before and after 2o application, obtained from 10-s fragments of the recording was also analyzed (FIG. 9C). […] The ISI distribution before and after 2q application, obtained from 10-s fragments of the recording was also analyzed (FIG. 10A).
Transgenic SCA2-58Q mice and their wild type (WT) littermates were used in these experiments. SCA2-58Q mice were kindly provided to us by Dr. Stefan Pulst (University of Utah) and were crossed to the FVB background strain. Hemizygous male SCA2-58Q mice were crossed with the WT female mice to generate mixed litters. The genotyping was done via PCR for ATXN2 transgene. The volume of one PCR sample was 25 μl. The PCR mix per one sample contained: 2.5 μl 10× buffer for Taq polymerase, 0.5 μl 10 mM dNTP, 1.5 μl 25 mM MgCl2, 0.125 μl 20 μM primers (forward and reverse), 0.25 μl Taq polymerase, 2 μl DNA, and 18 μl dH2O. For forward and reverse primer sequences, see e.g., Egorova et al., Cell Calcium, 2021 January; 93: 102319. The PCR product has 232 bp. Mice were housed in groups of two to six in one cage in the vivarium. The temperature was kept 22-24° C. including 12 daylight hours. […] All procedures were approved by the Bioethics Committee of the Peter the Great St. Petersburg Polytechnic University at St. Petersburg, Russia, and followed the principles of the European convention (Strasbourg, 1986) and the Declaration of International medical association about humane treatment of animals (Helsinki, 1996).
Recordings of spontaneous PC activity from WT and SCA2-58Q mice at 7-8 months of age were performed. Briefly, the mice were anesthetized with 2,000 mg/kg urethane and transcardially perfused with ice-cold aCSF containing 85 mM NaCl, 24 mM NaHCO3, 25 mM glucose, 2.5 mM KCl, 0.5 mM CaCl2, 4 mM MgCl2, 1 mM NaH2PO4, and 75 mM sucrose. Solutions were equilibrated with carbogen (95% O2/5% CO2). Next, the cerebellum was dissected and 300 μm thick sagittal slices were cut with a VT1200S vibratome (Leica). […] The external bath solution used for the recording was the same as the recovery aCSF, but also contained 100 μM picrotoxin (PTX) and 10 μM 6,7-dinitroquinoxaline-2,3-dione (DNQX), equilibrated with carbogen. All recordings were made within 5-6 hours after cerebellum was dissected. The recording chamber was heated to 35° C. using TC-324C automatic temperature controller (Warner Instruments). Loose-patch recordings were made to evaluate the spontaneous activity of cerebellar PCs. Briefly, 1-3 MΩ glass pipettes were filled with the internal solution containing 140 mM NaCl buffered with 10 mM HEPES pH 7.3 and held at 0 mV. A loose patch (<100 MΩ) configuration was established at the PC soma at the axon hillock area. Spontaneous action potential currents were recorded for 5-60 min from each cell using Axon Multiclamp 700B amplifier (Molecular Devices). The 10 min recordings were analyzed for tonic or burst firing. Cells were characterized as firing tonically if they fired repetitive nonhalting spike trains for 10 min. A cell was characterized as bursting if it had more than 5% of the interspike intervals that fell outside of 3 SD from the mean of all interspike intervals in that cell. The analysis of PC firing was performed using Clampfit 10.2 (Molecular Devices). Data was plotted as the instantaneous firing rate every 100 ms for the entire recording duration.

Structure (SMILES) | effect on PC firing frequency | effect on regularity of PC activity | effect on PC firing pattern | Average firing frequency (FF) after exposure | time after application until cell activity switched to the silent mode
Cc1cc(Nc2ccc(F)c(Cl)c2)nc(-n2nc(C)cc2C)n1 [Compound 2o, N-(3-Chloro-4-fluorophenyl)-2-(3,5-dimethyl-1H-pyrazol-1-yl)-6-methyl-pyrimidin-4-amine] | significantly decreased the firing frequency of the cell | improved the regularity of PC activity | converted bursting SCA2-58Q PC to tonic firing pattern; also recorded: normalize abnormal firing of Purkinje cells; also recorded: converts bursting patterns into tonic activity of PC | 84.6 Hz | –
Cc1cc(Nc2cc(Cl)ccc2F)nc(-n2nc(C)cc2C)n1 [Compound 2q, N-(5-Chloro-2-fluorophenyl)-2-(3,5-dimethyl-1H-pyrazol-1-yl)-6-methylpyrimidin-4-amine] | significantly decreased the firing frequency of the cell | improved the regularity of PC activity | converted bursting SCA2-58Q PC to tonic firing pattern; also recorded: normalize abnormal firing of Purkinje cells; also recorded: converts bursting patterns into tonic activity of PC and then into a silent mode | 55.9 Hz | 8 min

From US12312333B2, “SK channel positive allosteric modulators” (Chapman University, priority 2021, dated 2025)
